Assay results from PubChem BioAssay AID379.

Biological target: Adenylate kinase isoenzyme 1 (Homo sapiens) (UniProt P00568)
Assay: AK1 binders by thermal shift, biophysical, DSF, SYPRO orange (AID 379)
Settings: purified AK1, DSF SYPRO orange thermal shift; at 5 µM; protein 1 µM; buffer 10 mM HEPES; stronger effect = higher value

Adenylate kinase isoenzyme 1 (Homo sapiens), sequence (P00568 whole entry, looked up): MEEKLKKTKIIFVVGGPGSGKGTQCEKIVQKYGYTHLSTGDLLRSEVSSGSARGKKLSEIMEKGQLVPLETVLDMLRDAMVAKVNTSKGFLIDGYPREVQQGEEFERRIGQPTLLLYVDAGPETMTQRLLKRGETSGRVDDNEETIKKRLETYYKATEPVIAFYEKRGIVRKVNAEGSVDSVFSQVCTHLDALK

- Tm shift: 15.4 Celsius
SMILES: Nc1ncnc2c1ncn2[C@@H]1O[C@H](COP(=O)(O)OP(=O)(O)OP(=O)(O)OP(=O)(O)OP(=O)(O)OC[C@H]2O[C@@H](n3cnc4c(N)ncnc43)[C@H](O)[C@@H]2O)[C@@H](O)[C@H]1O
